{"source": "paper PMC3203620", "about": "(The Journal of Organic Chemistry, 2011)", "origin": "cited, not measured here", "key": {"Mt": {"system": "Mt", "settings": "due to poor uptake"}, "[1]": {"system": "Plasmodium falciparum DXR"}}}
{"smiles": "O=CN(O)CCCP(=O)(O)O", "note": "[Compound 1, fosmidomycin]", "values": [{"measurement": "activity on Mt at the whole cell level", "setting": "Mt", "value": "inactive"}, {"measurement": "pharmacokinetic properties", "value": "poor pharmacokinetic properties"}, {"measurement": "inhibition of Plasmodium falciparum DXR in vitro", "setting": "[1]", "value": "potent inhibitor"}, {"measurement": "activity in vivo in P. vinckei infected mice", "setting": "P. vinckei", "value": "potent inhibitor"}]}
